What was measured:
[1] = Average particle size (ζ-Average) and PDI by dynamic light scattering (Zetasizer Nano ZSP); type: physicochemical
Experimental: The average particle size (ζ-Average) and PDI in PBS(−) of lipid nanoparticles were measured using “Zetasizer Nano ZSP”, an analyzer utilizing dynamic light scattering (manufactured by Malvern).
Measurement of average particle size and PDI of the lipid nanoparticles were carried out with the same method as the measurement of average particle size of mRNA-LNP.
The average particle size (ζ-Average) and PDI in PBS (−) of lipid nanoparticles were measured using “Zetasizer Nano ZSP”, an analyzer utilizing dynamic light scattering (manufactured by Malvern).

spleen = assay: In vivo Fluc activity of FlucmRNA-loaded LNP by in vivo imaging, spleen; conditions: Balb/c mice, 6 hours; for Fluc activity in the spleen, compared with CL4F6 / Fluc activity in the spleen, compared with CL15F6: 0.1 mg mRNA/kg; for Fluc activity in the spleen, compared with CL4F6: versus LNP comprising CL4F6 (Tables 5 and 6); for Fluc Activity in spleen: FlucmRNA-loaded LNP i.v. 0.1 mg mRNA/kg; for Fluc activity in the spleen, compared with CL15F6: versus LNP comprising CL15F6 (Table 7)
Experimental: (§1) Then, each prepared FlucmRNA-loaded lipid nanoparticles were administered to Balb/c mice (Charles River Laboratories Japan, Inc., 7 weeks old, female) and in vivo gene expression activity was examined. Specifically, each FlucmRNA-loaded lipid nanoparticles were intravenously administered to Balb/c mice at 0.1 mg mRNA/kg, and Fluc activities in the liver and spleen at 6 hours later were measured. Fluc activity was measured by in vivo imaging system (Perkin Elmer, IVIS200) after administration of VivoGlo Luciferin, In Vivo Grade (Promega, P1041) dissolved with PBS to 15 mg/mL, via tail vein at a dose of 1.5 mg per mouse. The unit of Fluc activity is the emission intensity per unit area (Avg Radiance [p/s/cm2/sr]) at the maximum emission wavelength of about 560 nm. The results of measurement of the Fluc activity (Avg Radiance [p/s/cm2/sr]) in the liver and spleen of mice administered each FlucmRNA-loaded lipid nanoparticles are shown in Tables 5-7.

[2] = Storage stability of FlucmRNA-loaded LNP at −80, 5, 25 and 40° C.; type: physicochemical; conditions: for period for which quality remained good, −80° C.: maximum storage period 1 week
Experimental: Lipid nanoparticles were allowed to stand at each temperature of −80° C., 5° C., 25° C., and 40° C., and after keeping for each period of time, average particle size, PDI, and nucleic acid encapsulation rate were measured. Lipid nanoparticles which satisfy following all three conditions were defined that the quality was remained well: the average particle size is maintained within +/−20 nm based on the date of LNP preparation; PDI remains high uniformity with a value of 0.2 or less; and the nucleic acid encapsulation rate is also maintained at 80% or more. As a result of measuring average particle size, PDI, and nucleic acid encapsulation rate after each FlucmRNA-loaded lipid nanoparticle was allowed to stand at −80° C., 5° C., 25° C., and 40° C. respectively and kept for each period of time, periods of time defined as the quality of the lipid nanoparticles was remained well are shown in Tables 13 and 14. The lipid nanoparticles which remain in good quality with standing at 5° C. for one week or more can be evaluated as having excellent stability.

liver = assay: In vivo Fluc activity of FlucmRNA-loaded LNP by in vivo imaging, liver; conditions: Balb/c mice, 6 hours; for Fluc Activity in liver: FlucmRNA-loaded LNP i.v. 0.1 mg mRNA/kg
Experimental: as §1

[3] = siRNA/mRNA encapsulation rate by Ribogreen reagent (section IV); type: physicochemical; conditions: for % siRNA encapsulation: F7siRNA-loaded LNP, 50:10:38.5:1.5, N/P ratio 6; for % mRNA encapsulation: FlucmRNA-loaded LNP, 50:10:38.5:1.5
Experimental: The encapsulation rates of siRNA and mRNA of lipid nanoparticles were measured with Ribogreen reagent. A solution diluted with TE buffer solution was arranged so that lipid nanoparticle concentration as nucleic acid concentration to be 8 μg/mL, as a solution for measuring nanoparticle surface nucleic acid concentration. In addition, a solution for measuring total nucleic acid concentration was arranged so that lipid nanoparticle concentration as nucleic acid concentration to be 1.2 μg/mL, which is 1% (w/w) concentration of X-triton100, by adding X-triton100. For 100 μL of each solution, 100 μL of Ribogreen (registered trademark) reagent (Quant-iT™ RiboGreen™ RNA Reagent, manufactured by Thermofisher Scientific) was mixed well in the wells of 96-well microplate (black, made of polystyrene, flat bottom, manufactured by Corning), and the fluorescence intensity at an excitation wavelength of 485 nm and a measurement wavelength of 528 nm was measured with a microplate reader. Nucleic acid concentration was calculated by calibration curve created by measuring the fluorescence intensity of nucleic acid solution containing 1% X-triton100 (nucleic acid concentration: 0-2.5 μg/mL) as same as aforementioned. Nucleic acid encapsulation rate of each lipid nanoparticle was calculated by the following formula: Encapsulation rate %=(nucleic acid concentration in solution for measuring total nucleic acid concentration (μg/mL)−nucleic acid concentration in solution for measuring nanoparticle surface nucleic acid concentration (μg/mL))/nucleic acid concentration in solution for measuring total nucleic acid concentration (μg/mL)×100. <Results>
The encapsulation rate of mRNA of lipid nanoparticles was measured using Ribogreen (manufactured by life technologies).

F7 = assay: In vivo F7 knockdown, plasma F7 enzyme activity (BIOPHEN FVII), Balb/c mice; conditions: i.v. 0.025 mg siRNA/kg, plasma at 24 hours; for F7 enzyme activity (%): untreated mice as 100%; for F7 enzyme activity (Ratio using MC3 as 1): relative plasma F7 activity of MC3 LNP as 1
Experimental: Then, each prepared F7siRNA-loaded lipid nanoparticles were administered to Balb/c mice (Charles River Laboratories Japan, Inc., 5 weeks old, female) and in vivo F7 knockdown activity was examined. Specifically, BALB/c mice were intravenously administered F7siRNA-loaded lipid nanoparticles comprising the lipids described in Table 9 at 0.025 mg siRNA/kg and F7siRNA-loaded lipid nanoparticles comprising the lipids described in Tables 10 and 11 at 0.025 mg siRNA/kg, and the plasma F7 enzyme activity at 24 hours later was measured using BIOPHEN FVII (Biophen, A221304). Relative plasma F7 enzyme activity (%) of mice administered each F7siRNA-loaded lipid nanoparticles was calculated using plasma F7 enzyme activity of untreated mice as 100%. Furthermore, the ratio was calculated using the relative plasma F7 enzyme activity (%) of mice administered MC3-comprising F7siRNA-loaded lipid nanoparticles as 1. The results of measurement of CL4F6 derivative nanoparticles are shown in Tables 9 and 10, and results of measurement of CL15F6 derivative nanoparticles in Table 11.

[4] = F7siRNA-loaded LNP, 50:10:38.5:1.5, N/P ratio 6
[5] = FlucmRNA-loaded LNP, 50:10:38.5:1.5
[6] = FlucmRNA-loaded LNP, lipid:DSPC:cholesterol:DMG-PEG2K 50:10:38.5:1.5

SMILES: CCCCCCC(CCCCCC)C(=O)OCCCCCCC(O)(CCCCCCOC(=O)C(CCCCCC)CCCCCC)CCCCN(CCC)CCC [CL4F 8-6]
- PDI [1, 4]: 0.010
- ζ-Average (nm) [1, 4]: 99.72 nm
- PDI [1, 5]: 0.022
- ζ-Average (nm) [1, 6]: 88.78 nm
- Fluc activity in the spleen, compared with CL4F6 (spleen): higher Fluc activity
- Fluc Activity in spleen (spleen): 9.58E+06 Avg Radiance [p/s/cm2/sr]
- period for which quality remained good, −80° C. [2]: 1 week
- period for which quality remained good, 5° C. ([2]; maximum storage period 5 weeks): 5 weeks
- period for which quality remained good, 25° C. ([2]; maximum storage period 5 weeks): 5 weeks
- period for which quality remained good, 40° C. (weeks) ([2]; maximum storage period 5 weeks): 1 week weeks
- Fluc activity in the liver, compared with CL4F6 (liver; 0.1 mg mRNA/kg, versus LNP comprising CL4F6 (Tables 5 and 6)): higher Fluc activity
- Fluc Activity in liver (liver): 1.80E+08 Avg Radiance [p/s/cm2/sr]
- % siRNA encapsulation [3]: 100.0%
- % mRNA encapsulation [3]: 99.4%
- F7 enzyme activity (%) (F7): 3%

SMILES: CCCCCCCCCCCC(CCC)C(=O)OCCCCCCC(O)(CCCCCCOC(=O)C(CCC)CCCCCCCCCCC)CCCCOC(=O)C1CCN(C)CC1 (stereo not drawn) [CL15F 13-3]
- PDI [1, 4]: 0.081
- ζ-Average (nm) [1, 4]: 126.0 nm
- PDI [1, 5]: 0.048
- ζ-Average (nm) [1, 6]: 142.90 nm
- Fluc activity in the spleen, compared with CL15F6 (spleen): higher Fluc activity
- Fluc Activity in spleen (spleen): 6.11E+06 Avg Radiance [p/s/cm2/sr]
- period for which quality remained good, −80° C. [2]: 0 week
- period for which quality remained good, 5° C. ([2]; maximum storage period 5 weeks): 5 weeks
- period for which quality remained good, 25° C. ([2]; maximum storage period 5 weeks): 5 weeks
- period for which quality remained good, 40° C. (weeks) ([2]; maximum storage period 5 weeks): 5 weeks
- Fluc Activity in liver (liver): 3.51E+06 Avg Radiance [p/s/cm2/sr]
- % siRNA encapsulation [3]: 100.3%
- % mRNA encapsulation [3]: 98.62%
- F7 enzyme activity (Ratio using MC3 as 1) (F7): 1.11

SMILES: CCCCCCCCCCCC(CCC)C(=O)OCCCCCCC(O)(CCCCCCOC(=O)C(CCC)CCCCCCCCCCC)CCCCN(CCC)CCC (stereo not drawn) [CL4F 13-3]
- PDI [1, 4]: 0.023
- ζ-Average (nm) [1, 4]: 92.25 nm
- PDI [1, 5]: 0.044
- ζ-Average (nm) [1, 6]: 83.05 nm
- Fluc activity in the spleen, compared with CL4F6 (spleen): higher Fluc activity
- Fluc Activity in spleen (spleen): 7.30E+06 Avg Radiance [p/s/cm2/sr]
- period for which quality remained good, −80° C. [2]: 0 week
- period for which quality remained good, 5° C. ([2]; maximum storage period 5 weeks): 0 week weeks
- period for which quality remained good, 25° C. ([2]; maximum storage period 5 weeks): 0 week weeks
- period for which quality remained good, 40° C. (days) ([2]; maximum storage period 5 weeks): 0 day days
- Fluc Activity in liver (liver): 7.34E+07 Avg Radiance [p/s/cm2/sr]
- % siRNA encapsulation [3]: 99.7%
- % mRNA encapsulation [3]: 96.3%
- F7 enzyme activity (%) (F7): 8.4%

SMILES: CCCCCC(CCC)C(=O)OCCCCCCC(O)(CCCCCCOC(=O)C(CCC)CCCCC)CCCCOC(=O)C1CCN(C)CC1 (stereo not drawn) [CL15F 7-3]
- PDI [1, 4]: 0.398
- ζ-Average (nm) [1, 4]: 287.9 nm
- PDI [1, 5]: 0.369
- ζ-Average (nm) [1, 6]: 370.30 nm
- Fluc activity in the spleen, compared with CL15F6 (spleen): higher Fluc activity
- Fluc Activity in spleen (spleen): 1.48E+07 Avg Radiance [p/s/cm2/sr]
- quality at production (storage stability criteria) ([2]; criteria: PDI 0.2 or less, encapsulation 80% or more): Does not meet the criteria for “good” at production
- Fluc Activity in liver (liver): 5.34E+06 Avg Radiance [p/s/cm2/sr]
- % siRNA encapsulation [3]: 95.7%
- % mRNA encapsulation [3]: 64.2%
- F7 enzyme activity (Ratio using MC3 as 1) (F7): 2.08

Source: patent US12458605B2, “Lipid nanoparticle” (National University Corporation Hokkaido University, priority 2020, dated 2025)
